Test results from patent US20210137911A1, “NOVEL CHRONOTHERAPY BASED ON CIRCADIAN RHYTHMS” (THE TRUSTEES OF THE UNIVERSITY OF PENNSYLVANIA, priority 2014, published 2021).
Where two headings read alike, the source gives them in different places.

Key:
[1] = cited from earlier work
[2] = Trial of bedtime versus awakening administered Valsartan, blood pressure; type: in vivo
From the text: Taking an angiotensin receptor blocker (ARB) or an […] (ACE) inhibitor before bedtime is known to cause a drop in blood pressure. […] Thus, current treatment methods are insufficient to induce a dip in non-dippers.

[3] = cited from earlier work; remark: listed apart in the source
[4] = half-life of top selling therapeutic compounds (Table 1)
[5] = half-life of therapeutic compound as listed in Table 1

SMILES: CCCCC(=O)N(Cc1ccc(-c2ccccc2-c2nnn[nH]2)cc1)[C@H](C(=O)O)C(C)C [Valsartan]
- time at which concentration in plasma reaches the maximum after administration [1]: 2 to 4 h
- net blood pressure difference bedtime vs awakening, first value of printed pair ([2]; bedtime minus awakening): 8 mmHg
- net blood pressure difference bedtime vs awakening, second value of printed pair ([2]; bedtime minus awakening): 6 mmHg
- better result of bedtime group than the awakening group ([2]; bedtime vs awakening group): 10 mmHg

SMILES: NCCCCCC(=O)O [Aminocaproic Acid]
- ½ Life [3, 4]: 2 h

SMILES: C[n+]1ccccc1/C=N/O [Pralidoxime]
- ½ Life [3, 5]: 1.233 h

SMILES: CNC(=O)c1cnn(-c2nc(N)c3ncn([C@@H]4O[C@H](CO)[C@@H](O)[C@H]4O)c3n2)c1 [Regadenoson]
- ½ Life ([3]; in vivo): 0.033 h

SMILES: COc1ccnc(C[S+]([O-])c2nc3ccc(OC(F)F)cc3[nH]2)c1OC (stereo not shown) [Pantoprazole]
- ½ Life [3, 5]: 1 h

SMILES: COC(=O)CCc1ccc(OCC(O)CNC(C)C)cc1 (stereo not shown) [Esmolol]
- ½ Life [3, 4]: 2 h

SMILES: O=C1c2ccccc2C(=O)C1c1ccccc1 [Phenindione]
- ½ Life [3, 5]: 5 h
